Experiments:
pigweed = experiment: Test A preemergence; type: in vivo, Amaranthus retroflexus
Procedure, shortened: (§1)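 Injury scores run from 0, no effect, to 100, complete control, judged by eye against untreated plants roughly 10 days after treatment. Chemicals carried a surfactant in a non-phytotoxic solvent and went onto loam–sand soil preemergence or onto one- to two-leaf seedlings postemergence.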

corn [1] = experiment: Test A preemergence; type: in vivo, Zea mays
Procedure, shortened: as §1

large (Lg) crabgrass = experiment: Test A postemergence; type: in vivo, Digitaria sanguinalis
Procedure, shortened: as §1

giant foxtail = experiment: Test A postemergence; type: in vivo, Setaria faberii
Procedure, shortened: as §1

wheat = experiment: Test A postemergence; type: in vivo, Triticum aestivum
Procedure, shortened: as §1

Heteranthera limosa = experiment: Test B flooded paddy test; type: in vivo; conditions: Flood, 250 g ai/ha, 0 to 100 scale where 0 is no effect and 100 is complete control
Procedure, shortened: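 Flooded to 3 cm at the 2-leaf stage, pots received compound through the paddy water and were kept at that depth under greenhouse conditions. After 13–15 days, effect was rated by eye relative to controls, 0 = none and 100 = complete control.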

Italian ryegrass = experiment: Test C postemergence; type: in vivo, Lolium multiflorum
Text: Seeds of plant species selected from blackgrass (Alopecurus myosuroides), Italian ryegrass (Lolium multiflorum), wheat, winter (winter wheat, Triticum aestivum), galium (catchweed bedstraw, Galium aparine), corn (Zea mays), large (Lg) crabgrass (Digitaria sanguinalis), giant foxtail (Setaria faberii), johnsongrass (Sorghum halepense), lambsquarters (Chenopodium album), morningglory (Ipomoea coccinea), yellow nutsedge (Cyperus esculentus), pigweed (Amaranthus retroflexus), ragweed (common ragweed, Ambrosia elatior), soybean (Glycine max), barnyardgrass (Echinochloa crus-galli), oilseed rape (Brassica napus), waterhemp (common waterhemp, Amaranthus rudis), kochia (Kochia scoparia), wild oat (Avena fatua), surinam grass (Brachiaria decumbens), foxtail, green (green foxtail, Setaria viridis), goosegrass (Eleusine indica), bromegrass, downy (downy bromegrass, Bromus tectorum), nightshade (eastern black nightshade, Solanum ptycanthum), cocklebur (common cocklebur, Xanthium strumarium), cupgrass, woolly (woolly cupgrass, Eriochloa villosa), bermudagrass (Cynodon dactylon), sunflower, (common oilseed sunflower, Helianthus annuus), Russian thistle (Salsola kali), and velvetleaf (Abutilon theophrasti) were planted into a blend of loam soil and sand and treated preemergence with test chemicals formulated in a non-phytotoxic solvent mixture which included a surfactant.
At the same time, plants selected from these crop and weed species and also barley, winter (winter barley, Hordeum vulgare), windgrass (Apera spica-venti), chickweed (common chickweed, Stellaria media), deadnettle (henbit deadnettle, Lamium amplexicaule), and canarygrass (littleseed canarygrass, Phalaris minor) were planted in pots containing Redi-Earth® planting medium (Scotts Company, 14111 Scottslawn Road, Marysville, Ohio 43041) comprising spaghnum peat moss, vermiculite, wetting agent and starter nutrients and treated with postemergence applications of test chemicals formulated in the same manner. Plants ranged in height from 2 to 18 cm (1- to 4-leaf stage) for postemergence treatments. Treated plants and controls were maintained in a greenhouse for 13 to 15 days, after which time all species were compared to controls and visually evaluated. Plant response ratings, summarized in Table C, are based on a scale of 0 to 100 where 0 is no effect and 100 is complete control. A dash (-) response means no test result.

corn [2] = experiment: Test C postemergence; type: in vivo, Zea mays
Procedure, shortened: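 Whole-plant greenhouse test with surfactant-containing solvent formulation, applied preemergence to sown loam–sand pots or postemergence to 2–18 cm plants. Scored by eye 13 to 15 days on, 0–100 scale.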

[3] = 500 g ai/ha, 0 to 100 scale where 0 is no effect and 100 is complete control
[4] = 125 g ai/ha, 0 to 100 scale where 0 is no effect and 100 is complete control
[5] = 16 g ai/ha, postemergence, 0 is no effect, 100 is complete control
[6] = 31 g ai/ha, postemergence, visual rating, scale 0 to 100 (0 no effect, 100 complete control), 13 to 15 days
[7] = 125 g ai/ha, postemergence, visual rating, scale 0 to 100 (0 no effect, 100 complete control)
[8] = Postemergence, 62 g ai/ha, scale 0 to 100 (0 no effect, 100 complete control)
[9] = 500 g ai/ha, 0 to 100 scale, 0 no effect, 100 complete control, approx. 10 days
[10] = 500 g ai/ha, 0 to 100 scale, 0 no effect, 100 complete control
[11] = Postemergence, 31 g ai/ha, scale 0 to 100 (0 no effect, 100 complete control), 13 to 15 days

Structure (SMILES) | Pigweed plant response rating (0 to 100 scale) (pigweed; 125 g ai/ha) | Pigweed plant response rating (pigweed; [3]) | Corn plant response rating (0 to 100 scale) (corn [1]; 125 g ai/ha) | Corn plant response rating (corn [1]; [3]) | Crabgrass, Large plant response rating (large (Lg) crabgrass; [4]) | Plant response rating, Crabgrass, Large (large (Lg) crabgrass; [3]) | Foxtail, Giant plant response rating (giant foxtail; [4]) | Plant response rating, Foxtail, Giant (giant foxtail; [3]) | Wheat plant response rating (wheat; [4]) | Plant response rating, Wheat (wheat; [3]) | Plant response rating, Ducksalad (Heteranthera limosa) | Plant response rating (0 to 100), Ryegrass, Italian (Italian ryegrass; [5]) | Ryegrass, Italian plant response rating (Italian ryegrass; [6]) | Plant response rating, Ryegrass, Italian (Italian ryegrass; [7]) | Plant response rating, Ryegrass, Italian (Italian ryegrass; [8]) | Plant response rating (0 to 100), Corn (corn [2]; [5]) | Corn plant response rating (corn [2]; [6]) | Plant response rating, Corn (corn [2]; [7]) | Plant response rating, Corn (corn [2]; [8]) | Plant response rating, Corn (corn [1]; [4]) | also measured
Clc1cnc(Oc2cccc(Cl)c2-n2cc(I)cn2)nc1 [Compound 181] | 100 | 100 | 0 | 30 | 70 | 90 | 70 | 90 | 0 | 30 | 75 | 0 | 0 | 10 | 5 | 5 | 5 | 5 | 5 | – | –
FC(F)c1cccc(Oc2ncc(Br)cn2)c1-n1cc(C(F)(F)F)cn1 [Compound 163] | 100 | 100 | – | 10 | 30 | 90 | 50 | 90 | 10 | 60 | 90 | 0 | 0 | 10 | 0 | 5 | 5 | 10 | 10 | 0 | –
FC(F)(F)c1cnn(-c2c(Br)cccc2Oc2ncc(Cl)cn2)c1 [Compound 191] | 100 | 100 | 0 | 30 | 50 | 90 | 50 | 90 | 20 | 40 | 95 | 0 | 0 | 5 | 5 | 5 | 5 | 10 | 10 | – | –
Fc1cccc(Oc2ncc(Cl)cn2)c1-n1cc(Cl)cn1 [Compound 177] | 100 | 100 | – | 50 | 80 | 100 | 80 | 100 | 20 | 90 | 90 | 0 | 0 | 0 | 0 | 5 | 5 | 10 | 10 | 0 | –
Fc1cnc(Oc2ccccc2-n2cc(C(F)(F)F)cn2)nc1 [Compound 47] | – | – | – | – | – | – | – | – | – | – | 95 | – | – | – | 0 | – | – | – | 0 | 0 | Plant response rating, Pigweed (pigweed; [4]): 100; Pigweed plant response rating (pigweed; [9]): 100; Corn plant response rating (corn [1]; [9]): 90; Plant response rating, Crabgrass, Large (large (Lg) crabgrass; [4]): 70; Plant response rating, Crabgrass, Large (large (Lg) crabgrass; [10]): 100; Plant response rating, Foxtail, Giant (giant foxtail; [4]): 80; Plant response rating, Foxtail, Giant (giant foxtail; [10]): 100; Plant response rating, Wheat (wheat; [4]): 60; Plant response rating, Wheat (wheat; [10]): 100; Plant response rating (0 to 100), Ryegrass, Italian (Italian ryegrass; 125 g ai/ha, postemergence): 0; Plant response rating (0 to 100), Ryegrass, Italian (Italian ryegrass; 250 g ai/ha, postemergence): 0; Plant response rating, Ryegrass, Italian (Italian ryegrass; [11]): 0; Plant response rating (0 to 100), Corn (corn [2]; 125 g ai/ha, postemergence): 5; Plant response rating (0 to 100), Corn (corn [2]; 250 g ai/ha, postemergence): 5; Plant response rating, Corn (corn [2]; [11]): 0
FC(F)c1cnn(-c2ccccc2Oc2ncc(Cl)cn2)c1 [Compound 80, 5-chloro-2-[2-[4-(difluoromethyl)-1H-pyrazol-1-yl]phenoxy]pyrimidine] | – | – | – | – | – | – | – | – | – | – | – | – | – | – | – | – | – | – | – | – | pest or weed control at 125 g/ha (pigweed; Amaranthus retroflexus, pre-emergence, 125 g ai/ha, 0 to 100 scale where 0 is no effect and 100 is complete control, read-out: Plant response rating, Pigweed): 0%; pest or weed control at 500 g/ha (pigweed; Amaranthus retroflexus, pre-emergence, 240 h, 500 g ai/ha, 0 to 100 scale, 0 no effect, 100 complete control, approx. 10 days, read-out: Pigweed plant response rating): 0%; Corn plant response rating (crop injury, 0 = no effect, 100 = complete kill) at 125 g/ha (corn [1]; Zea mays, pre-emergence, 240 h, 125 g ai/ha, 0 to 100 scale where 0 is no effect and 100 is complete control): 0%; plant injury at 500 g/ha (corn [1]; Zea mays, pre-emergence, 240 h, 500 g ai/ha, 0 to 100 scale, 0 no effect, 100 complete control, approx. 10 days, read-out: Corn plant response rating): 40%; pest or weed control at 125 g/ha (large (Lg) crabgrass; Digitaria sanguinalis, post-emergence, 240 h, 125 g ai/ha, 0 to 100 scale where 0 is no effect and 100 is complete control, read-out: Plant response rating, Crabgrass, Large): 80%; pest or weed control at 500 g/ha (large (Lg) crabgrass; Digitaria sanguinalis, post-emergence, 240 h, 500 g ai/ha, 0 to 100 scale, 0 no effect, 100 complete control, read-out: Plant response rating Crabgrass, Large): 100%; pest or weed control at 125 g/ha (giant foxtail; Setaria faberi, post-emergence, 240 h, 125 g ai/ha, 0 to 100 scale where 0 is no effect and 100 is complete control, read-out: Plant response rating, Foxtail, Giant): 80%; pest or weed control at 500 g/ha (giant foxtail; Setaria faberi, post-emergence, 240 h, 500 g ai/ha, 0 to 100 scale where 0 is no effect and 100 is complete control, read-out: Plant response rating, Foxtail, Giant): 90%; plant injury at 125 g/ha (wheat; Triticum aestivum, post-emergence, 240 h, 125 g ai/ha, 0 to 100 scale where 0 is no effect and 100 is complete control, read-out: Plant response rating, Wheat): 40%; plant injury at 500 g/ha (wheat; Triticum aestivum, post-emergence, 240 h, 500 g ai/ha, 0 to 100 scale where 0 is no effect and 100 is complete control, read-out: Plant response rating, Wheat): 80%; pest or weed control at 250 g/ha (Heteranthera limosa; Heteranthera limosa, read-out: Plant response rating, Ducksalad): 100%; pest or weed control at 125 g/ha (Italian ryegrass; Lolium multiflorum, post-emergence, 125 g ai/ha, postemergence, read-out: Plant response rating (0 to 100), Ryegrass, Italian): 5%; pest or weed control at 31 g/ha (Italian ryegrass; Lolium multiflorum, post-emergence, Postemergence, 31 g ai/ha, scale 0 to 100 (0 no effect, 100 complete control), 13 to 15 days, read-out: Plant response rating, Ryegrass, Italian): 0%; pest or weed control at 62 g/ha (Italian ryegrass; Lolium multiflorum, post-emergence, Postemergence, 62 g ai/ha, scale 0 to 100 (0 no effect, 100 complete control), read-out: Plant response rating, Ryegrass, Italian): 20%; plant injury at 16 g/ha (corn [2]; Zea mays, post-emergence, 16 g ai/ha, postemergence, visual rating, scale 0 to 100 (0 no effect, 100 complete control), 13 to 15 days, read-out: Corn plant response rating): 0%; plant injury at 125 g/ha (corn [2]; Zea mays, post-emergence, 125 g ai/ha, postemergence, read-out: Plant response rating (0 to 100), Corn): 5%; Corn plant response rating (crop injury, 0 = no effect, 100 = complete kill) at 31 g/ha (corn [2]; Zea mays, post-emergence, Postemergence, 31 g ai/ha, scale 0 to 100 (0 no effect, 100 complete control), 13 to 15 days): 0%; Corn plant response rating (crop injury, 0 = no effect, 100 = complete kill) at 62 g/ha (corn [2]; Zea mays, post-emergence, Postemergence, 62 g ai/ha, scale 0 to 100 (0 no effect, 100 complete control)): 5%
